Source: patent publication US20250136581A1, “SUBSTITUTED TRIAZOLE DERIVATIVE, PREPARATION METHOD THEREFOR, PHARMACEUTICAL COMPOSITION THEREOF, AND USE THEREOF” (SHANGHAI SIMR BIOTECHNOLOGY CO., LTD., priority 2021, published 2025)

molecular target: human α5β3γ2 receptors (α5-GABAA receptor) (Homo sapiens (Human), UniProt P18507+P31644); test: 3H-flunitrazepam competition binding, human α5β3γ2 GABAA receptor; settings: HEK293 cell membranes, 1 nM 3H-flunitrazepam; read-out: α5-GABAAR Ki
Experimental: The affinity of the compound to each subtype of GABAA receptor was determined by competing for the binding of ^3H-flunitrazepam to HEK293 cells stably expressing human α1β3γ2, α2β3γ2, α3β3γ2, and α5β3γ2 receptors.
The cells were suspended in 50 mM Tris-HCl buffer (pH=7.4), homogenized 10 times on ice with a homogenizer for 20 seconds, and centrifuged at 1000 g for 10 minutes at 4° C. The supernatant was collected, and the above steps were repeated. The supernatant was centrifuged at 4° C. (33800 g; Thermo, rotor: A27-8×50) for 60 minutes, and the precipitate was resuspended in Tris buffer (50 mM Tris-HCl, 10 mM MgCl2, 0.5 mM EDTA, 10% glycerol). Protein was measured (BCA method, Pierce), and 1 mL aliquots were prepared and stored at −80° C.
The radioligand competition binding assay was performed in a 200 μL system (96-well plate) containing 100 μL of cell membrane. The concentration of ^3H-flunitrazepam was 1 nM and the concentration of the test compound was in the range of […]. Flumazenil was used as a control. 1 μL of 2 mM flumazenil (final concentration […]) was added to the low signal control well (Low control, LC), and 1 μL of DMSO was added to the high signal control well (High control, HC). The final concentration of target membrane protein was […]. All test compound sample storage solutions were 10 mM. The working concentration of the samples was to dilute all the samples to 0.2 mM with DMSO, followed by 4-fold serial gradient dilutions for a total of 8 concentration gradients. The 96-well plate was sealed with a sealing film, and then incubated on a shaker at room temperature for 1 hour. At the same time, the GF/C filter plate was soaked in soaking buffer (0.3% PEI, stored at 4° C.) for at least 0.5 hours. After the binding incubation was completed, the cells were collected onto a GF/C filter plate using a cell harvester. The plate was washed four times with washing buffer (50 mM Tris-HCl, pH 7.4, stored at 4° C.). After drying in a 50° C. oven for 1 hour, the bottom of the dried GF/C filter plate was sealed. The residual radioactivity on the filter membrane was detected using liquid scintillation counting. 50 μL of scintillation fluid was added to each well, and the plate was sealed. The readings were taken using a Microbeta2. The inhibitory activity of the test sample on the binding of ^3H-flunitrazepam to GABAA receptor membrane proteins was calculated, and the IC50 of each test sample was calculated by dose-effect curve fitting (GraphPad Prism 5 software), and the Ki of the sample was calculated from the IC50, thus evaluating the binding ability of the sample to the various subtypes of GABAA receptors.

| Compound | Ki [nM] |
| --- | --- |
| Cc1nnn(-c2ccc(C(F)F)cc2)c1COc1ccc(N2CCN3CC(c4cnn(C)c4)NC(=O)[C@@H]3C2)nn1 (single isomer, unassigned) [Example 211] | 2.02 |
| Cc1nnn(-c2ccc(C(F)F)cc2)c1COc1ccc(N2CCN(c3ccn(C)n3)C(=O)C2)nn1 [Example 112, 4-(6-((1-(4-(Difluoromethyl)phenyl)-4-methyl-1H-1,2,3-triazol-5-yl)methoxy)pyridazin-3-yl)-1-(1-methyl-1H-pyrazol-3-yl)piperazin-2-one] | 0.81 |
| Cc1nnn(-c2ccc(C(F)F)cc2)c1COc1ccc(N2CCN(CCn3cccn3)C(=O)C2)nn1 [Example 138, 1-(2-(1H-Pyrazol-1-yl)ethyl)-4-(6-((1-(4-(difluoromethyl)phenyl)-4-methyl-1H-1,2,3-triazol-5-yl)methoxy)pyridazin-3-yl)piperazin-2-one] | 2.11 |
| O=C1CN(c2ccc(OCc3c(Cl)nnn3-c3ccc(Cl)cc3)nn2)CCN1 [Example 190, 4-(6-((4-Chloro-1-(4-chlorophenyl)-1H-1,2,3-triazol-5-yl)methoxy)pyridazin-3-yl)piperazin-2-one] | 1.96 |
| Cc1nnn(-c2ccc(C(F)F)cc2)c1COc1nnc(N2CCNC(=O)C2)c2ncccc12 [Example 137, 4-(5-((1-(4-(Difluoromethyl)phenyl)-4-methyl-1H-1,2,3-triazol-5-yl)methoxy)pyrido[2,3-d]pyridazin-8-yl)piperazin-2-one] | 0.49 |
| Cc1nnn(-c2ccc(C(F)F)cc2)c1COc1ccc(N2CC(C(=O)N3CCOC(C)(C)C3)C2)nn1 [Example 158, (1-(6-((1-(4-(Difluoromethyl)phenyl)-4-methyl-1H-1,2,3-triazol-5-yl)methoxy)pyridazin-3-yl)azetidin-3-yl)(2,2-dimethylmorpholino)methanone] | 4.31 |
| Cc1cc(OCc2c(C)nnn2-c2ccc(C(F)F)cc2)nnc1N1CCNC(=O)C1 [Example 82, 4-(6-((1-(4-(Difluoromethyl)phenyl)-4-methyl-1H-1,2,3-triazol-5-yl)methoxy)-4-methylpyridazin-3-yl)piperazin-2-one] | 0.63 |
| Cc1nnn(-c2ccc(C(F)F)cc2)c1COc1ccc(N2CCC(N(C)C)C2)nn1 (stereo not shown) [Example 12, 1-(6-((1-(4-(Difluoromethyl)phenyl)-4-methyl-1H-1,2,3-triazol-5-yl)methoxy)pyridazin-3-yl)-N,N-dimethylpyrrolidin-3-amine] | 0.89 |
| O=C1CN(c2ccc(OCc3cnnn3-c3ccc(Cl)cc3)nn2)CCN1 [Example 214, 4-(6-((1-(4-Chlorophenyl)-1H-1,2,3-triazol-5-yl)methoxy)pyridazin-3-yl)piperazin-2-one] | 49.2 |
| Cc1nnn(-c2ccc(C(F)F)cc2)c1COc1ccc(N2CCN3CCCNC(=O)[C@@H]3C2)nn1 [Example 120, (S)-2-(6-((1-(4-(Difluoromethyl)phenyl)-4-methyl-1H-1,2,3-triazol-5-yl)methoxy)pyridazin-3-yl)octahydropyrazino[1,2-a][1,4]diaza-10(2H)-one] | 27.2 |
| Cc1nnn(-c2ccc(C(F)F)cc2)c1COc1ccc(C2CCNC(=O)C2)cn1 (stereo not shown) [Example 170, 4-(6-((1-(4-(Difluoromethyl)phenyl)-4-methyl-1H-1,2,3-triazol-5-yl)methoxy)pyridin-3-yl)piperidin-2-one] | 2.3 |
| Cc1nnn(-c2ccc(C(F)F)cc2)c1COc1ccc(N2CCN3CC(=O)NC(=O)[C@@H]3C2)nn1 [Example 117, (S)-8-(6-((1-(4-(Difluoromethyl)phenyl)-4-methyl-1H-1,2,3-triazol-5-yl)methoxy)pyridazin-3-yl)hexahydro-1H-pyrazino[1,2-a]pyrazin-1,3-(2H)-dione] | 4.87 |
| O=C1CN(c2ccc(OCc3c(C4CC4)nnn3-c3ccc(C(F)F)cc3)nn2)CCN1 [Example 83, 4-(6-((4-Cyclopropyl-1-(4-(difluoromethyl)phenyl)-1H-1,2,3-triazol-5-yl)methoxy)pyridazin-3-yl)piperazin-2-one] | 2.6 |
| Cc1nnn(-c2ccc(C(F)F)cc2)c1COc1ccc(N2CC(=O)N3C[C@@H]4C[C@]3(CO4)C2)nn1 [Example 177, (3S,9aR)-8-(6-((1-(4-(Difluoromethyl)phenyl)-4-methyl-1H-1,2,3-triazol-5-yl)methoxy)pyridazin-3-yl)tetrahydro-1H-3,9a-methanopyrazino[2,1-c][1,4]oxazin-6(7H)-one] | 1.26 |
| CCNC(=O)[C@H]1CCCN1c1ccc(OCc2c(C)nnn2-c2ccc(C(F)F)cc2)nn1 [Example 41, (R)-1-(6-((1-(4-(Difluoromethyl)phenyl)-4-methyl-1H-1,2,3-triazol-5-yl)methoxy)pyridazin-3-yl)-N-ethylpyrrolidine-2-carboxamide] | 42.6 |
| Cc1nnn(-c2ccc(C(F)F)cc2)c1COc1ccc(N2CC(=O)N3CCOC[C@@H]3C2)nn1 [Example 174, (S)-8-(6-((1-(4-(Difluoromethyl)phenyl)-4-methyl-1H-1,2,3-triazol-5-yl)methoxy)pyridazin-3-yl)hexahydropyrazino[2,1-c][1,4]oxazin-6(1H)-one] | 1.39 |
| Cc1cc(-c2nnn(-c3ccc(C(F)F)cc3)c2COc2ccc(N3CCNC(=O)C3)nn2)no1 [Example 188, 4-(6-((1-(4-(Difluoromethyl)phenyl)-4-(5-methylisoxazol-3-yl)-1H-1,2,3-triazol-5-yl)methoxy)pyridazin-3-yl)piperazin-2-one] | 40.6 |
| Cc1nnn(-c2ccc(C(F)F)cc2)c1COc1ccc(N2CCCC3(COC3)C2)nn1 [Example 85, 6-(6-((1-(4-(Difluoromethyl)phenyl)-4-methyl-1H-1,2,3-triazol-5-yl)methoxy)pyridazin-3-yl)-2-oxa-6-azaspiro[3.5]nonane] | 2.24 |
| Cc1nnn(-c2ccc(C(F)F)cc2)c1COc1ccc(N2CCN[C@H](C#N)C2)nn1 [Example 33, (S)-4-(6-((1-(4-(Difluoromethyl)phenyl)-4-methyl-1H-1,2,3-triazol-5-yl)methoxy)pyridazin-3-yl)piperazine-2-carbonitrile] | 3.31 |
| Cc1nnn(-c2ccc(C(F)F)cc2)c1COc1ccc(N2CCN3CC(c4cccc(Cl)c4)NC(=O)[C@@H]3C2)nn1 (stereo partly drawn) [Example 205, (9aS)-3-(3-Chlorophenyl)-8-(6-((1-(4-(difluoromethyl)phenyl)-4-methyl-1H-1,2,3-triazol-5-yl)methoxy)pyridazin-3-yl)hexahydro-2H-pyrazino[1,2-a]pyrazin-1(6H)-one] | 2.1 |
| Cc1nnn(-c2ccc(F)cc2)c1COc1ccc(N2CCN3CCOC[C@@H]3C2)nn1 [Example 126, (S)-8-(6-((1-(4-Fluorophenyl)-4-methyl-1H-1,2,3-triazol-5-yl)methoxy)pyridazin-3-yl)octahydropyrazino[2,1-c][1,4]oxazine] | 40.1 |
| Cc1nnn(-c2ccc(C(F)F)cc2)c1COc1ccc(N2CC(=O)N3CC4CC3(C4)C2)nn1 [Example 179, 2-(6-((1-(4-(Difluoromethyl)phenyl)-4-methyl-1H-1,2,3-triazol-5-yl)methoxy)pyridazin-3-yl)tetrahydro-6H-7,8a-methanopyrrolo[1,2-a]pyrazin-4(1H)-one] | 6.33 |
| Cc1nnn(-c2ccc(C(F)F)cc2)c1COc1ccc(N2CC(C(=O)Nc3cnn(C(F)F)c3)C2)nn1 [Example 153, N-(1-(Difluoromethyl)-1H-pyrazol-4-yl)-1-(6-((1-(4-(difluoromethyl)phenyl)-4-methyl-1H-1,2,3-triazol-5-yl)methoxy)pyridazin-3-yl)azetidine-3-carboxamide] | 1.89 |
| Cc1nnn(-c2ccc(C(F)F)cc2)c1COc1ccc(N2CC(=O)N3CCS(=O)(=O)C[C@H]3C2)nn1 [Example 175, (R)-8-(6-((1-(4-(Difluoromethyl)phenyl)-4-methyl-1H-1,2,3-triazol-5-yl)methoxy)pyridazin-3-yl)hexahydropyrazino[2,1-c][1,4]thiazin-6(1H)-one 2,2-dioxide] | 2.63 |

same assay, conditions: α5-GABAAR Ki, HEK293 cell membranes, 1 nM 3H-flunitrazepam

| Compound | Ki [nM] |
| --- | --- |
| CCNC(=O)C12CC(CN(c3ccc(OCc4c(C)nnn4-c4ccc(C(F)F)cc4)nn3)C1)C2 [Example 121, 3-(6-((1-(4-(Difluoromethyl)phenyl)-4-methyl-1H-1,2,3-triazol-5-yl)methoxy)pyridazin-3-yl)-N-ethyl-3-azabicyclo[3.1.1]heptane-1-carboxamide] | 1.73 |
